Source: US11985974B2, “Antimicrobial ferulic acid derivatives and uses thereof” (WISCONSIN ALUMNI RESEARCH FOUNDATION, priority 2014, dated 2024)

Legend:
yeast cells = test: Cell leakage assay (FungaLight, flow cytometry); assay type: cell-based, Saccharomyces cerevisiae; conditions: 4 h
Protocol: A FungaLight Cell Viability Assay (L34952; Invitrogen) using a Guava Flow Cytometer (Millipore) was used to determine if poacic acid caused membrane damage. The population of stained cells (damaged integrity) vs. nonstained cells can be determined by flow cytometry. Caspofungin (50 ng/mL) was included as a positive control. MMS and DMSO were included as a noncell wall-targeting control and a solvent control, respectively. To test the effects of the compounds on both active and arrested cells, log-phase cultures were washed with 1×PBS and resuspended to an OD0.5 in either YPD medium or YP (no carbon source) in the presence of the drugs (n=3) for 4 h at 30° C. The cells were then stained and immediately read by flow cytometry. One-way ANOVA and Tukey's test were used to calculate the difference between drug treatments among cells with arrested growth.

yeast = conditions: against yeast, literature values; cited from earlier work

Compound | cell leakage (propidium iodide uptake) (yeast cells; actively growing cells (YPD)) | IC50 (yeast) [µM] | cell leakage (propidium iodide uptake) (yeast cells; arrested cells without carbon source (YP))
COS(C)(=O)=O [MMS, methyl methanesulfonate] | did not |  | 
O=C1C2CC=CCC2C(=O)N1SC(Cl)(Cl)Cl (stereo not drawn) [captan] |  | 19 | 
CC[C@H](C)C[C@H](C)CCCCCCCCC(=O)N[C@H]1C[C@@H](O)[C@@H](NCCN)NC(=O)[C@@H]2[C@@H](O)CCN2C(=O)[C@H]([C@H](O)CCN)NC(=O)[C@H]([C@H](O)[C@@H](O)c2ccc(O)cc2)NC(=O)[C@@H]2C[C@@H](O)CN2C(=O)[C@H]([C@@H](C)O)NC1=O [caspofungin] | caused rapid cell leakage |  | diminished
O=S(=O)([O-])[O-].[Cu+2] [copper sulfate] |  | 2400 | 
CO/C=C(/C(=O)OC)c1ccccc1COc1cccc(C(F)(F)F)n1 [picoxystrobin] |  | 308 | 
NC(=O)OC[C@H](O)[C@@H](O)[C@H](N)C(=O)N[C@H](C(=O)O)[C@H]1O[C@@H](n2cc(C(=O)O)c(=O)[nH]c2=O)[C@H](O)[C@@H]1O [polyoxin D] |  | 340 | 
CCCN(CCOc1c(Cl)cc(Cl)cc1Cl)C(=O)n1ccnc1 [prochloraz] |  | 132 | 
c1ccc2[nH]c(-c3cscn3)nc2c1 [thiabendazole] |  | 607 | 
